Results from patent EP2878677A1, “Activators of protein phosphatase 5” (Deutsches Zentrum für Neurodegenerative Erkrankungen e.V. …, priority 2013, dated 2015).

System: human tau-P301L-transfected mice brains
Assay: human tau-P301L-transfected mice treated via mini-osmotic pumps, immunohistochemistry of the hippocampus
Format: in vivo, C57BL/6 mice
Experimental: All protocols for animal experiments described in this study were performed according to the German laws for animal experimentation (Tierschutzgesetz) from 1998. The study was approved by the authorities of the State of Saxony-Anhalt (Landesverwaltungsamt) and performed according to institutional guidelines. Animals were maintained under constant environmental conditions with ambient temperature of 20 ± 2 °C and relative humidity of 50%. They were housed with a 12 hour light-dark cycle and given food and water ad libitum. Adult wild-type C57BL/6 mice (10 weeks old) obtained from Charles River Laboratories (Sulzfeld, Germany) were used for all studies. 4% halothane in a mixture of nitrous oxide/oxygen (ratio 70:30) was used for the induction of anesthesia and 1 to 1.5% halothane for the maintenance of anesthesia. Halothane was applied via a nose cone. Throughout all surgical procedures, the animal's body temperature was kept at 37°C using a thermostatically controlled heating blanket. Intracerebral injection of viral particles into the hippocampus of the right brain hemisphere of anesthetized mice was performed stereotactically at coordinates 2.6 mm posterior to bregma, lateral 1.0 mm and ventral 2.0 mm. 2 µl of high titer viral suspension were injected with a fixed syringe (Hamilton Company, Reno, NV, USA). After injection at a rate of 0.2 µl/min, the cannula was left in place for further 30 sec before slow withdrawal. After surgery, the wound was sutured.
Mini-osmotic pumps (Model 2006, Alzet, Palo Alto, CA, USA) were implanted intraperitoneal (ip) through a midline incision immediately after P301L transfection. During implantation, animals remained under halothane anesthesia (details above). The pumps (internal volume: 245.6 µl) were loaded with one of the following substances: P5SA-2, P5SA-3, P5SA-4, P5SA-5 or corresponding vehicle solution (DMSO/polyethylene glycol 400 (50:50 w/w) without drug. P5SA (final concentration 1 mg/kg/day) or vehicle infusion (ip) started immediately after transplantation with a continuous flow rate of 0.15 µl/h and was maintained for 6 weeks.
6 weeks after P301L transfection, mice were anesthetized by ip injection of 4% chloral hydrate in PBS, transcardially perfused with ice-cold PBS and fixed with 4% paraformaldehyde in 0.1 M PBS. Immediately after fixation, animals were decapitated. The brains were removed and post-fixed in the same fixative overnight. Fixed brains were placed in a mouse brain matrix (Activational Systems Inc., Warren, USA) and transected into defined coronal brain slices (thickness 1 mm) along the anterior-posterior axis. After incubation in 30% sucrose containing PBS for cryoprotection, 20 µm-thick frontal sections, comprising the hippocampal formation, were cut using a cryostat (Microm International GmbH, Walldorf, Germany). For immunohistochemical staining, sections were washed in 0.1 M PBS. Free-floating sections were permeabilized with 0.2% Triton X-100 in PBS containing 10% normal horse serum for 30 min. After washing with PBS, unspecific antibody binding was blocked by 10% normal horse serum for 30 min, followed by a further wash in 0.1 M PBS. Then, sections were incubated with primary antibodies. For immunofluorescence staining, primary antibodies directed against total tau (human plus endogenous mice tau, K9JA) and MAP2 (microtubule-associated protein 2), respectively, were applied simultaneously. Alternatively, the primary antibodies AT8 (human phospho-tau, AT8 (Ser202/Thr205) phosphorylation site) and the human tau-specific primary antibody tau-13 were used individually. After overnight incubation at 4°C, sections were rinsed with 0.1 M PBS. Sections exposed to the primary antibody combination K9JA/MAP2 were incubated with the complementary secondary antibodies goat anti-rabbit IgG Alexa Fluor 488 and goat anti-mouse IgG Alexa Fluor 594. AT8 and tau-13 were visualized with goat anti-mouse IgG Alexa Fluor 594. […]

[1] = 1 mg/kg/day, continuous ip infusion for 6 weeks

| Structure (SMILES) | phosphorylation of human tau-P301L at its AT8 epitope (Ser202/Thr205) [1] | tau-P301L-dependent pattern of neuronal degeneration in the hippocampal formation [1] | numbers of AT8-positive perikarya of CA3 pyramidal neurons per hippocampal slice (1 mg/kg/day ip for 6 weeks, mean ± SEM, vehicle 7.0 ± 2.0, P< 0.0001) | tau-P301L-dependent localization of total tau signals in the perikarya of CA1 and CA3 pyramidal neurons [1] |
| --- | --- | --- | --- | --- |
| COc1ccc(-c2nc(Cc3ccc(Cl)cc3)no2)cc1OC [P5SA-2] | diminished | not observed | – | – |
| CN1CCc2c(sc(-n3cccc3)c2CNC(=O)NC23CC4CC(CC(C4)C2)C3)C1 [P5SA-3] | diminished | not observed | – | – |
| O=c1cc2nc(-c3ccc(F)cc3)nc(SCc3ccc(Br)cc3)n2[nH]1 [P5SA-4] | diminished | not observed | – | – |
| CNC(=O)c1c(NC(=O)COCC(=O)Nc2sc3c(c2C(=O)NC)CCC3)sc2c1CCC2 [P5SA-5] | remarkably reduced | decreased | 2.2 ± 1.4 | remained unaffected |
